Measured values published in US20250034168A1, “NITROGEN-CONTAINING HETEROCYCLIC DERIVATIVE PARP INHIBITOR AND USE THEREOF” (XIZANG HAISCO PHARMACEUTICAL CO., LTD., priority 2021, published 2025).

Tests used:
MDA-MB-436 cells = assay: MDA-MB-436 cell activity test; type: cell-based; conditions: Homo sapiens; for IC50: MDA-MB-436, 168 h, 7 days incubation, CellTiter-Glo; for inhibition at 10 µM: MDA-MB-436 cells, read-out: Max inh. % 10 μM
Description: Breast tumor cells MDA-MB-436 were purchased from ATCC, the culture medium was Leibovitz's L-15+10% FBS, and the cells were cultured in a CO2-free incubator at 37° C. On day 1, the cells in the exponential growth phase were collected, and the cell suspension was adjusted to 4000 cells/135 μL with the culture medium. 135 μL of the cell suspension was added to each well of a 96-well cell culture plate and incubated overnight. On day 2, compounds at different concentrations were added, and the plate was placed in the incubator and incubated for 7 days. After the incubation was completed, according to operation instructions for a CellTiter-Glo kit (Promega, G7573), 75 μL of CTG solution, which was already pre-melted and equilibrated to room temperature, was added to each well, and the mixture was uniformly mixed for 2 min using a microplate shaker. The plate was placed at room temperature for 10 min, and then […] were measured using an Envision2104 plate reader (PerkinElmer). The inhibition rate was calculated using formula (1), where RLUcompound was the readout of the drug treated group, RLUcontrol was the average value of the vehicle control group, and RLUblank was the average value of the cell-free well. The IC50 value was calculated using GraphPad Prism software.

PARP-1 enzyme = PARP-1 enzyme (Homo sapiens (Human), UniProt P09874); assay: PARP-1 enzyme activity test; type: biochemical
Description: PARP-1 chemical […] detection kit was purchased from BPS Bioscience. The histone solution in the kit was diluted 5× with 1×PBS, and 25 μL of the diluted histone solution was added to a microwell plate and incubated overnight at 4° C. After the incubation, the plate was washed three times with PBST (0.05% Tween-20). 100 μL of the blocking solution was added to the microwell plate and incubated at 25° C. for 90 minutes. After the incubation, the plate was washed three times with PBST. 2.5 μL of compounds at different concentrations diluted in test buffer and 12.5 μL of substrate mixed solution (1.25 μL 10×PARP test buffer; 1.25 μL 10×PARP test mixed solution; 2.5 μL Activated DNA, 7.5 μL double-distilled water) were added to the microwell plate. The PARP-1 enzyme was diluted to 2 ng/μL, 10 μL of the diluent was added to the microwell plate, and the reaction system was incubated at 25° C. for 60 minutes.
After the incubation, the plate was washed three times with PBST. Streptavidin-HRP was diluted 50× with a blocking solution, and 25 μL of the diluent was added to the microwell plate and incubated at 25° C. for 30 minutes. After the incubation, the plate was washed three times with PBST. ELISA ECL substrate A and substrate B were mixed at a ratio of 1:1 (v/v), 50 μL of the mixture was added to the microwell plate, and the chemiluminescence value was read.
The inhibition rate was calculated according to formula 1, where RLUsample was the readout of the compound well, RLUmax was the readout of the solvent control well, and RLUmin was the readout of the control well without the PARP-1 enzyme. Curve fitting was performed by four parameters (log(inhibitor) vs. response—Variable slope) using GraphPad Prism software, and the IC50 value was calculated.

Sequence of PARP-1 enzyme (P09874 whole entry): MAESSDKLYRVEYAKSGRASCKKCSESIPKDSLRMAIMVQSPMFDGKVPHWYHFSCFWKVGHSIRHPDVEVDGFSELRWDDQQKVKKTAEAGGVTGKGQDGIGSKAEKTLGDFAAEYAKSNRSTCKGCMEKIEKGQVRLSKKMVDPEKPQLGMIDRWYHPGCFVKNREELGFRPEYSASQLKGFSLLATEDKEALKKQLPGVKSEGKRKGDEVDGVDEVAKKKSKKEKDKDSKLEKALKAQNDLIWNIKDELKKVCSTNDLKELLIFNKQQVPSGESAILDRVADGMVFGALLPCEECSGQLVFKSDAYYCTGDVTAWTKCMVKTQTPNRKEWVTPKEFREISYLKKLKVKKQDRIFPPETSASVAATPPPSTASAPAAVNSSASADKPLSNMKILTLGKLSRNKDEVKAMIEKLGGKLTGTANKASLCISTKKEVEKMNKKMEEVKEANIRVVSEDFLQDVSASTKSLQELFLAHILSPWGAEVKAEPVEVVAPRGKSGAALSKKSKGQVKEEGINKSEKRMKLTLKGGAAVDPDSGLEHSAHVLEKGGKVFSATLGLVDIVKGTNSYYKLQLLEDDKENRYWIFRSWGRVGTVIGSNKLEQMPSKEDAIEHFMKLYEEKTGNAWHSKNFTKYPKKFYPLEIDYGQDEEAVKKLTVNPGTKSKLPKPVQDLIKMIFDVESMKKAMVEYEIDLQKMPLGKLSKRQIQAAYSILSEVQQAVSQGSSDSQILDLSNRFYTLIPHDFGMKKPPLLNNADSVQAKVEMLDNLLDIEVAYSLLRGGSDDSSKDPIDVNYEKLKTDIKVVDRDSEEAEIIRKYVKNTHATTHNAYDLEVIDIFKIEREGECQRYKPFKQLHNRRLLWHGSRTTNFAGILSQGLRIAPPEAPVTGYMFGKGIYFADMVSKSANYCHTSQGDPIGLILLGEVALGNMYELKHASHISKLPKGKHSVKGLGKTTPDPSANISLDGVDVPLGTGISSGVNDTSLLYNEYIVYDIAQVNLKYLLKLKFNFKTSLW

SMILES | IC50 (PARP-1 enzyme) | IC50 (MDA-MB-436 cells) | inhibition at 10 µM (MDA-MB-436 cells)
CCc1cc2ncc(CN3CC=C(c4ccc(C(=O)N[C@@H]5C[C@@H]5F)nc4)CC3)cc2[nH]c1=O [Compound 26, 1′-((7-ethyl-6-oxo-5,6-dihydro-1,5-naphthyridin-3-yl)methyl)-N-((1R,2S)-2-fluorocyclopropyl)-1′,2′,3′,6′-tetrahydro-[3,4′-bipyridine]-6-carboxamide] | 0.41 nM | 1 nM | 90.9%
CCc1cc2ncc(CN3CC4CN(c5ccc(C(=O)NC)nc5)CC4C3)cc2[nH]c1=O (stereo not drawn) [Compound 1, 5-(5-((7-ethyl-6-oxo-5,6-dihydro-1,5-naphthyridin-3-yl)methyl)hexahydropyrrolo [3,4-c]pyrrol-2(1H)-yl)-N-methylpicolinamide] | 0.8 nM | – | –
CCc1cc2ncc(CN3CC=C(c4ccc(NC(=O)C5CC5)nc4)CC3)cc2[nH]c1=O [Compound 22, N-(1′-((7-ethyl-6-oxo-5,6-dihydro-1,5-naphthyridin-3-yl)methyl)-1′,2′,3′,6′-tetrahydro-[3,4′-bipyridin]-6-yl)cyclopropanecarboxamide] | 0.31 nM | 2.2 nM | 89.1%
CCc1cc2ncc(CN3CC=C(c4cn5cc(C(F)(F)F)nc5cn4)CC3)cc2[nH]c1=O [Compound 33, 3-ethyl-7-((4-(2-(trifluoromethyl)imidazo[1,2-a]pyrazin-6-yl)-3,6-dihydropyridin-1(2H)-yl)methyl)-1,5-naphthyridin-2(1H)-one] | 0.71 nM | 1.9 nM | 77.6%
CCc1cc2ncc(CN3CC=C(c4ccc(C(=O)NC5CC5)nc4)CC3)cc2[nH]c1=O [Compound 25, N-cyclopropyl-1′-((7-ethyl-6-oxo-5,6-dihydro-1,5-naphthyridin-3-yl)methyl)-1′,2′,3′,6′-tetrahydro-[3,4′-bipyridine]-6-carboxamide] | 0.36 nM | – | –
CCc1cc2ncc(CN3CC=C(c4cn5cc(C)nc5cn4)CC3)cc2[nH]c1=O [Compound 27, 3-ethyl-7-((4-(2-methylimidazo[1,2-a]pyrazin-6-yl)-3,6-dihydropyridin-1(2H)-yl)methyl)-1,5-naphthyridin-2(1H)-one] | 0.41 nM | – | –
CCc1cc2ncc(CN3C4CCC3CN(c3ccc(C(=O)NC)nc3)C4)cc2[nH]c1=O [Compound 3, 5-(8-((7-ethyl-6-oxo-5,6-dihydro-1,5-naphthyridin-3-yl)methyl)-3,8-diazabicyclo[3.2.1]octan-3-yl)-N-methylpicolinamide] | 1.6 nM | – | –

Second part, led by results:

IC50 (PARP-1 enzyme) | SMILES | IC50 (MDA-MB-436 cells) | inhibition at 10 µM (MDA-MB-436 cells)
0.78 nM | CCc1cc2ncc(CN3CC4(C3)CN(c3ccc(C(=O)NC)nc3)C4)cc2[nH]c1=O [Compound 8, 5-(6-((7-ethyl-6-oxo-5,6-dihydro-1,5-naphthyridin-3-yl)methyl)-2,6-diazaspiro[3.3]heptan-2-yl)-N-methylpicolinamide] | – | –
0.51 nM | CCc1cc2ncc(CN3CC(Nc4ccc(C(=O)NC)nc4)C3)cc2[nH]c1=O [Compound 6, 5-((1-((7-ethyl-6-oxo-5,6-dihydro-1,5-naphthyridin-3-yl)methyl)azetidin-3-yl)amino)-N-methylpicolinamide] | – | –
0.36 nM | CCc1cc2ncc(CN3CC[C@@H](Nc4ccc(C(=O)NC)nc4)C3)cc2[nH]c1=O [Compound 19, (R)-5-((1-((7-ethyl-6-oxo-5,6-dihydro-1,5-naphthyridin-3-yl)methyl)pyrrolidin-3-yl)amino)-N-methylpicolinamide] | – | –
0.26 nM | CCc1cc2ncc(CN3CC=C(c4ccc(NC(=O)c5cnn(C)c5)nc4)CC3)cc2[nH]c1=O [Compound 30, N-(1′-((7-ethyl-6-oxo-5,6-dihydro-1,5-naphthyridin-3-yl)methyl)-1′,2′,3′,6′-tetrahydro-[3,4′-bipyridin]-6-yl)-1-methyl-1H-pyrazole-4-carboxamide] | 0.7 nM | 91.8%
0.26 nM | CCc1cc2ncc(CN3CC=C(c4ccc(C(=O)Nc5cnn(C)c5)nc4)CC3)cc2[nH]c1=O [Compound 20, 1′-((7-ethyl-6-oxo-5,6-dihydro-1,5-naphthyridin-3-yl)methyl)-N-(1-methyl-1H-pyrazol-4-yl)-1′,2′,3′,6′-tetrahydro-[3,4′-bipyridine]-6-carboxamide] | 0.7 nM | 91.8%
0.19 nM | CCc1cc2ncc(C=C3CCN(c4ccc(C(=O)Nc5cnn(C)c5)nc4)CC3)cc2[nH]c1=O [Compound 32, 5-(4-((7-ethyl-6-oxo-5,6-dihydro-1,5-naphthyridin-3-yl)methylene)piperidin-1-yl)-N-(1-methyl-1H-pyrazol-4-yl)picolinamide] | 13.8 nM | 99.1%
0.33 nM | CCc1cc2ncc(C=C3CCN(c4ccc(C(=O)NC)nc4)CC3)cc2[nH]c1=O [Compound 28, 5-(4-((7-ethyl-6-oxo-5,6-dihydro-1,5-naphthyridin-3-yl)methylene)piperidin-1-yl)-N-methylpicolinamide] | – | –
0.95 nM | CCc1cc2ncc(CC3CCN(c4ccc(C(=O)NC)nc4)CC3)cc2[nH]c1=O [Compound 29, 5-(4-((7-ethyl-6-oxo-5,6-dihydro-1,5-naphthyridin-3-yl)methyl)piperidin-1-yl)-N-methylpicolinamide] | – | –
